Reference: US12600704B2, “Substituted 1,2,4-triazoles and methods of use” (STINGINN LLC, priority 2019, dated 2026)

Tests used:
hTERT cells = assay: ELISA of type I IFN and cytokines in hTERT cells; format: cell-based, human
Excerpt: (§1) Example 2: Examining Agonists of STING. Compounds of the present invention were examined for its ability to activate the type I interferon (IFN) promoter, using a live cell assay. This assay comprised immortalized human fibroblasts (hTERT) that were stably transfected with the type I IFN promoter driving luciferase as well as the CMV promoter driving SEAP (hTERT-pIFNβ-Glu). The live cell assay was developed by the Barber lab and has been patented. The ability of the small molecules to activate the type I IFN promoter and the transcription of luciferase, but not SEAP was assessed. This is since the activation of STING, typically by CDNs, in turn activates the transcription factors NF-κB and IRF3, both of which are required to induce the transcriptional stimulation of the Type I IFN promoter, but not the CMV promoter (IRF3 and NF-κB transcription factor binding sites are not contained in the CMV promoter). Thus, activation of STING by a small molecule identified in the first screen (HTS), results in the level of luciferase increasing relative to SEAP production. […] To confirm this, Compound 28 was administered onto normal hTERT cells and the production of Type I IFN measured using ELISA (FIG. 1C). […] Thus, Compound 28 is a more robust activator of STING compared to CDNs.
Example 10: Interferon β ELISA analysis. […]

[1] = system: type I IFN promoter (IFNβ promoter) in hTERT-pIFNβ-Glu cells; assay: Live cell assay: type I IFN promoter driving luciferase (CMV promoter driving SEAP) in hTERT-pIFNβ-Glu cells; format: cell-based, human
Excerpt: Compounds of the present invention were examined for their ability to activate the type I interferon (IFN) promoter, using a live cell assay. This assay comprised immortalized human fibroblasts (hTERT) that were stably transfected with the type I IFN promoter driving luciferase as well as the CMV promoter driving SEAP (hTERT-pIFNβ-Glu), as described in PCT Application No. PCT/US2019/025380, inventor Glen N. Barber, published as WO2019195285, which is herein incorporated by reference in its entirety and for all purposes. The ability of the small molecules to activate the type I IFN promoter and the transcription of luciferase, but not SEAP was assessed. […]
Solubility was determined using proprietary software, e.g., https://www.researchgate.net/publication/12055195_Internet_Software_for_the_Calculation_of_the_Lipophilicity_and_Aqueous_Solubility_of_Chemical_Compounds, last visited Dec. […]
Example 2: Examining Agonists of STING. […] The ability of the small molecules to activate the type I IFN promoter and the transcription of luciferase, but not SEAP was assessed. […] To confirm this, Compound 28 was administered onto normal hTERT cells and the production of Type I IFN measured using ELISA (FIG. 1C). […]

STING [2] = assay: Immunofluorescence of STING trafficking and IRF3/NF-κB nuclear localization in hTERT cells; format: cell-based, human
Excerpt: Example 2: Examining Agonists of STING. Compounds of the present invention were examined for its ability to activate the type I interferon (IFN) promoter, using a live cell assay. This assay comprised immortalized human fibroblasts (hTERT) that were stably transfected with the type I IFN promoter driving luciferase as well as the CMV promoter driving SEAP (hTERT-pIFNβ-Glu). The live cell assay was developed by the Barber lab and has been patented. The ability of the small molecules to activate the type I IFN promoter and the transcription of luciferase, but not SEAP was assessed. This is since the activation of STING, typically by CDNs, in turn activates the transcription factors NF-κB and IRF3, both of which are required to induce the transcriptional stimulation of the Type I IFN promoter, but not the CMV promoter (IRF3 and NF-κB transcription factor binding sites are not contained in the CMV promoter). […] To confirm this, Compound 28 was administered onto normal hTERT cells and the production of Type I IFN measured using ELISA (FIG. 1C). […]
Example 11: Immunofluorescence microscopy. […] Immunostaining was performed with rabbit-anti-STING polyclonal, rabbit-anti-IRF3 (Santa Cruz Biotechnology) or rabbit-anti-p65 (Cell Signaling) followed by fluorescence conjugated secondary antibodies (FITC-goat-anti-rabbit) (Invitrogen). […]

STING [3] = assay: Type I IFN production in hTERT cells lacking STING (RNAi); format: cell-based, human; conditions: STING RNAi vs control RNAi
Excerpt: as §1

[4] = target: T1, STING (amino acids 152-379, STING152-379H) (Homo sapiens, UniProt Q86WV6); assay: Thermal shift assay (TSA) binding screen with purified STING152-379H
T1 construct: made in house; host or cells: E. coli BL21 DE3 RIPL Codon Plus
T1 sequence (Q86WV6 with tags, fused parts or gaps): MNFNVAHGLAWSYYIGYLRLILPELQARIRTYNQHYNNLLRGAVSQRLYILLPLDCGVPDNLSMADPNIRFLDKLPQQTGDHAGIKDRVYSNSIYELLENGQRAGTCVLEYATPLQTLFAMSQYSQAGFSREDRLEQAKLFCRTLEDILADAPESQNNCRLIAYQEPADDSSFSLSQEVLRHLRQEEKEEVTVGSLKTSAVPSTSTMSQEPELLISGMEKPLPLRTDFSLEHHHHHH
Excerpt: Example 1: Identification of small molecule activators of STING. An assay was designed to identify small compounds that bound to STING. To achieve this, the carboxyl terminal region of STING (amino acids 152-379) fused to a histidine tag was expressed in bacteria as described in materials and methods. Soluble STING dimers were purified over a nickel affinity column and enriched further using gel filtration. Purified STING was used in a thermal shift assay (TSA) to isolate small molecules that bound to STING. A thermal shift assay quantifies the change in the thermal denaturation temperature of a protein. […] Once this was established, purified STING (5 μl; 1 μM) was mixed with 2.5 μl DMSO and compound (1% DMSO final with 2.5% SYPRO orange. The total reaction mixture was 10 μl in […] HEPES and 100 mM NaCl. SYPRO Orange binds nonspecifically to hydrophobic surfaces. When the protein unfolds, the exposed hydrophobic surfaces bind the dye, resulting in an increase in fluorescence by excluding water. The stability curve and its midpoint value (melting temperature, Tm also known as the temperature of hydrophobic exposure, Th) was obtained by gradually increasing the temperature to unfold the protein and measuring the fluorescence at each point. Curves were measured for STING only and STING+small molecule, and ΔTm was calculated. […]

[5] = system: STING dependent TBK1 and IRF3 phosphorylation; assay: Immunoblot of TBK1/IRF3 phosphorylation in hTERT cells
Protocol: Equal amounts of proteins were resolved on sodium dodecyl sulfate (SDS)-Polyacrylamide gels and then transferred to polyvinylidene fluoride (PVDF) membranes (Millipore). After blocking with 5% Blocking Reagent, membranes were incubated with various primary antibodies (and appropriate secondary antibodies). The image was resolved using an enhanced chemiluminescence system ECL (Thermo Scientific) and detected by autoradiography (Kodak).

2-((5-(4-ethylphenyl)-4H-1,2,4-triazol-3-yl)thio)-1-phenylpropan-1-one [Compound 28]
Production of type I IFN (hTERT cells; human fibroblasts (hTERT)): induce the production of type I IFN and other cytokines

CCc1ccc(-c2nnc(SC(C)C(=O)c3ccccc3)[nH]2)cc1 (stereo not drawn) [Compound 28, 2-((5-(4-ethylphenyl)-4H-1,2,4-triazol-3-yl)thio)-1-phenylpropan-1-one]
Activation of the type I IFN promoter (luciferase but not SEAP) [1]: exhibited the ability to activate the type I IFN promoter in hTERT-pIFNβ-Glu and induce the expression of luciferase but not SEAP | fold induction at 50 µM ([1]; Homo sapiens, 50 μM, 0.5% DMSO, luciferase, approx. 24 h (FIGS. 2A-C) or approx. 12 h (FIGS. 3A-B), read-out: Activity (Fold changes of IFNβ promoter activity at 50 μM)): 8 | Production of cytokines IL6, IL8 and MCP-1 (hTERT cells; hTERT cells): the production of cytokines IL6, IL8 and MCP-1 | STING trafficking and IRF3/NF-κB activation and nuclear localization (STING [2]): induces STING trafficking and IRF3/NF-κB activation and nuclear localization in hTERT cells | Duration of STING activation (STING [2]; STING trafficking, nuclear localization of NF-κB and IRF3): over 24 hours | Type I IFN production in hTERT cells lacking STING (STING [3]): unable to produce type I IFN | Binding to STING [4]: can bind to and specifically activate STING signaling | Activation/phosphorylation of TBK1 (and IRF3) [5]: able to activate TBK-1
